According to patent US6965051B2, “Process for resolution of tamsulosin and compounds, compositions, and processes associated therewith” (Synthon IP Inc., priority 2001, dated 2005):

Key:
[1] = Solubility of solid state racemic tamsulosin free base precipitates (qualitative); assay type: physicochemical; settings: relatively pure precipitate
Text: The typical starting tamsulosin substrate, namely racemic tamsulosin free base in solid state, is not formed in the prior art per se. The present invention is based in part on the discovery that the racemic free base can be formed and isolated in the solid state. Preferably the solid state form is a precipitate from a solution. More preferably, the solid state form is a crystalline form. The crystalline form includes all polymorphic modifications, unless otherwise noted and includes hydrates and solvates thereof. In particular, two polymorphic forms of solid state racemic tamsulosin free base, designated as Form 1 and Form 2, have now been discovered as part of the present invention and are described hereinafter. The solid state racemic free base can be isolated in high purity, including at least 80% purity, more preferably at least 90% purity, still more preferably at least 95% purity.

[2] = Water solubility of amine (5) observed during alkaline extraction; assay type: physicochemical; settings: free base, normal alkaline extraction gave too high a loss
Text: It has now been discovered that the so obtained free base of (5) is contaminated by side-products and should be purified for the next step. […] It has been discovered that an effective way to purify the amine is to form a sulfonic acid salt of the amine, especially methane sulfonate or tosylate. The salt, particularly the methane sulfonate salt of (5), may be isolated in solid, preferably crystalline state by conventional methods and may be used as an advantageous substrate in the next reaction step. The conversion of the free base of (5) into an acid addition salt and isolation of the salt in solid state enhances the purity of the compound (5), particularly it removes side products that resulted from hydrogenation such as 2-ethoxyphenyl. The 2-(o-ethoxyphenoxy)ethylamine methane sulfonate thus forms a specific aspect of this invention.

Row | solubility in alcohols ([1]; alcohols such as methanol and ethanol) | solubility in chlorinated hydrocarbons ([1]; chlorinated hydrocarbons) | solubility in water ([1]; water) | water solubility [2] | SMILES
1 | soluble | soluble | sparingly soluble |  | CCOc1ccccc1OCCNC(C)Cc1ccc(OC)c(S(N)(=O)=O)c1 (racemic) [racemic tamsulosin free base, (R,S)-5-[2-[[2-(2-ethoxyphenoxy)ethyl]amino]propyl]-2-methoxybenzene-sulfonamide]
2 |  |  |  | unexpectedly high | CCOc1ccccc1OCCN [amine (5), 2-(o-ethoxyphenoxy)ethylamine]
